Test results taken from patent US8680137B2, “Agents and methods for treating ischemic and other diseases” (Nono Inc., priority 2009, dated 2014).
pIC50: −log10 of the molar value. Where two headings read alike, the source gives them in different places.

What was measured:
[1] = system: SW13 adrenal carcinoma cells; experiment: Cancer cell proliferation, SW13; format: cell-based; conditions: SW13, FIG. 79
Protocol: (§1) To determine the breadth of efficacy in cancers, we examined the efficacy of a range of TRPM7 inhibitors for their ability to inhibit cell proliferation in cancer cell lines. Representative figures are included as examples.
(§2) Cells (Table 1) were grown to 70% confluency, trypsinized, counted, and seeded in 96-well flat-bottom plates at a final concentration of 2.5×10^3-5.0×10^3 cells/well in growth media containing 5% FBS (Day 0). Other well sizes and cell densities were used successfully as well. Cells were allowed to incubate in growth media for 24 hours to allow for maximum adhesion. Treatment with the test agent began on Day 1 and continued for 72 hours either with or without retreatment. At the 72 hour time point, viable cell numbers are quantified by the CellTiter-Glo® cell viability assay as described above, or using standard MTT, SRB or BrDU assays. Experiments were repeated at least twice with the same concentrations to determine growth inhibitory activity.
(§3) Data Collection—For the cell proliferation studies, data from each experiment was collected and expressed as % Cell Growth using the following calculation: % Cell Growth=(ftest/fvehicle)×100 Where ftest is the luminescent signal of the tested sample, and fvehicle is the luminescence of the vehicle in which the drug is dissolved (or appropriate measure for the other viability/proliferation measures). […]

A375 melanoma = experiment: Cancer cell proliferation, A375; format: cell-based; conditions: Homo sapiens
Protocol: as §1, §2
as §3, with “measures). Dose response graphs and IC50 values were generated using standard software using the following variable slope equation:” for “measures).”

Y79 retinoblastoma cells [2] = experiment: Y79 retinoblastoma cells seeded on cultured retinal explants (ex vivo); format: cell-based
Protocol: Retinal explants were surgically dissected and cultured by standard methods. One hundred thousand Y79 retinoblastoma cells were then seeded onto the retinas in culture and allowed to grow for 2 weeks on inserts in the presence or absence of 5 μM M6. Y79 cells were fluorescently labeled and intensity was counted (arbitrary fluorescence units). […] TRPM7 inhibitors may be useful in the reduction of tumor metastasis in addition to either reducing the proliferation or killing of cancer cells. FIG. 78 is a repetition of the experiment, observing the distribution of Y79 cells after 12 days of migration off the retina. The darker bars of each pair indicate fluorescence intensity of cells that have migrated off the retina.

RXF-393 renal = experiment: Cancer cell proliferation, RXF-393; format: cell-based, human; conditions: for pIC50: Homo sapiens
Protocol: as §1, §2
as §3, with “measures). Dose response graphs and IC50 values were generated using standard software using the following variable slope equation:” for “measures).”

DMS456 lung cancer = experiment: Cancer cell proliferation, DMS456; format: cell-based; conditions: >20% inhibition at 48-96 hours, MTT, SRB, luminescence or BrDU
Protocol: as §1, §2, §3

Y79 retinoblastoma cells [3] = experiment: Cancer cell proliferation, Y79; format: cell-based
Protocol: as §1, §2
as §3, with “measures). Dose response graphs and IC50 values were generated using standard software using the following variable slope equation:” for “measures).”

B16F10 melanoma = experiment: Murine tumor model of B16F10 melanoma; format: in vivo, mouse; conditions: intravenous 20 mg/kg once daily
Protocol: To evaluate the efficacy of TRPM7 inhibitors in vivo, M6 was selected to for a pilot evaluation of its ability to reduce tumor formation in a murine tumor model of B16F10 melanoma and a RXF-393 human renal cell carcinoma xenograft model of tumor proliferation. […] For each tumor model, an appropriate number of cells were injected into the right flank (˜3-5 million cells per animal in 0.1 ml 50% matrigel/50% media). When tumor sizes reached 100-150 mg, animals were randomized into control (vehicle only), positive control or M6. M6 was given by intravenous injection to 20 mg/kg once daily. Tumors were measured and the weights were calculated by standard means.

in vivo = conditions: mouse, mice, highest dose tested, read-out: maximum tolerated dose
H9c2 cardiomyocytes = experiment: Toxicity on H9c2 cardiomyocytes, PI uptake after 72 hours; format: cell-based, rat
Protocol: To differentiate between an anti-proliferative effect of the TRPM7 inhibitors and cellular toxicity, the compounds were added to various ‘non-cancerous’ cell lines at the same concentrations and the percentage of PI uptake was measured after 72 hours.

AMPA receptor = AMPA receptor currents in cultured neurons; format: cell-based
Protocol: (§4) To examine selectivity of a subset of these TRPM7 inhibitors, experiments were performed to determine whether TRPM7 antagonists cross-react with other ionic channels and receptors. […] From a therapeutic perspective, knowledge of cross-reactivity of candidate drugs could shed light on other ischemic mechanisms and raise awareness of potential side effects. M21 has no effect on voltage-sensitive Na+, and Ca2+ currents in cultured cortical neurons […] TRPM7-expressing HEK293 cells, but inhibits K+ currents by about 20% at membrane potentials of −10 mV. M21 had no effect on agonist-induced Ca2+ changes in HEK293 cells transfected with constructs for TRPM2, TRPM4, TRPM6, TRPV1, TRPC2 and TRPA1. M21 also has no effect on NMDA and AMPA receptor currents in cultured neurons. […] Similar experiments were performed with other TRPM7 inhibitors including M5 and M11.

[4] = system: LAD coronary artery ligation; experiment: Mouse model of permanent LAD coronary artery ligation (myocardial infarction); format: in vivo; conditions: single intravenous dose within 15 minutes of LAD occlusion
TRPA1 = target: T1, TRPA1 (Homo sapiens, UniProt O75762); experiment: Agonist-induced Ca2+ changes in HEK293 cells transfected with TRPA1; format: cell-based
T1 construct: expressed in transfected cells; host or cells: HEK293
T1 sequence (O75762 whole entry, species assumed): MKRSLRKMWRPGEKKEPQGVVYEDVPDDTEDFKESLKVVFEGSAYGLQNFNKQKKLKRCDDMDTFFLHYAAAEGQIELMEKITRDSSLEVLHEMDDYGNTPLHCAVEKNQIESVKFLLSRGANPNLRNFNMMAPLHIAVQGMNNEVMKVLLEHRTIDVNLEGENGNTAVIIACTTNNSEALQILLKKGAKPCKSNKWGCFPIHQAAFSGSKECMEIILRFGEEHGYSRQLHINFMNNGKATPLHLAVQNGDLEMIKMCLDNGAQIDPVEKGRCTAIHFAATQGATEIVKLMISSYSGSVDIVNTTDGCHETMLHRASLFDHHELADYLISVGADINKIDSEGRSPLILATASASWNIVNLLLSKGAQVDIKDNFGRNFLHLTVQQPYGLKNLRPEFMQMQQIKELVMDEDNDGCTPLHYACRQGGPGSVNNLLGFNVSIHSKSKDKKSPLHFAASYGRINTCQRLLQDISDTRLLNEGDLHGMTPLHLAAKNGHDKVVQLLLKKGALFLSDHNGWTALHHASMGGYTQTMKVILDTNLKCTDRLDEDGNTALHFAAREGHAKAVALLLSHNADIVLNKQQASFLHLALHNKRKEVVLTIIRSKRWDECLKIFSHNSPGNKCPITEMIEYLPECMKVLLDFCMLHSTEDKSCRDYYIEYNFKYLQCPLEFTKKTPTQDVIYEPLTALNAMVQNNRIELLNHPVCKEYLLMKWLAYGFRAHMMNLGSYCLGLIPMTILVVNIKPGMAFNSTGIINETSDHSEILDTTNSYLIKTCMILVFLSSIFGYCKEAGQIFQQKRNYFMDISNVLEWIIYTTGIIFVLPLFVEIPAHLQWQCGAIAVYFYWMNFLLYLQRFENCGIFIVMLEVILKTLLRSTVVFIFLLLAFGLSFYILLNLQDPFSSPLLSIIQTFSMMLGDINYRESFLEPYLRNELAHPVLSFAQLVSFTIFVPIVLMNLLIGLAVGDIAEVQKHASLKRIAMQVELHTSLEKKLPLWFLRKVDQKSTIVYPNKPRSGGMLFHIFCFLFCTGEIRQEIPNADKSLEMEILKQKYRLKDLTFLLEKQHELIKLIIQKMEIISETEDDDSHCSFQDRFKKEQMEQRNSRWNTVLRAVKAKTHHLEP
Protocol: as §4

[5] = system: formalin-induced pain behaviors; experiment: Formalin induced inflammatory pain in rats; format: in vivo, rat; conditions: i.v. administration, formalin 2.5% 50 μL plantar hindpaw

COc1cc2c(cc1OC)C(c1sc3ccccc3c1Cl)=NCC2 [Compound M6]
proliferation (BrDU incorporation) [1]: significantly reduce proliferation | pIC50 (A375 melanoma; A-375, 72 h, A375, Exp 1, 72 hours, read-out: IC50): 4.90 | pIC50 (A375 melanoma; A-375, 72 h, A375, Exp 2, 72 hours, read-out: IC50): 4.85 | pIC50 (A375 melanoma; A-375, A375, mean of Exp 1 and Exp 2, read-out: Mean IC50): 4.87 | fluorescence of cells migrated off the retinal explant (Y79 retinoblastoma cells [2]; 1 μM, 12 days, FIG. 78): significantly lower Y79 fluorescence off of the retinal explant | amount of Y79 cells on cultured retinas (fluorescence) (Y79 retinoblastoma cells [2]; 5 μM, 2 weeks): reduce the amount of Y79 cells | ability of Y79 cells to migrate off of the retina (Y79 retinoblastoma cells [2]; 5 μM, 2 weeks, FIG. 77 panel B): significantly reduced the ability of Y79 cells to migrate off of the retina | pIC50 (RXF-393 renal; RXF 393, 72 h, RXF393, Exp 1, 72 hours, read-out: IC50): 5.28 | pIC50 (RXF-393 renal; RXF 393, 72 h, RXF393, Exp 2, 72 hours, read-out: IC50): 5.09 | pIC50 (RXF-393 renal; RXF 393, RXF393, mean of Exp 1 and Exp 2, read-out: Mean IC50): 5.17 | Demonstrated Reduction of Proliferation at or below 10 μM Inhibitor concentration (RXF-393 renal; RXF-393, >20% inhibition at 48-96 hours, MTT, SRB, luminescence or BrDU): RXF-393 renal | Demonstrated Reduction of Proliferation at or below 10 μM Inhibitor concentration (DMS456 lung cancer): DMS456 lung cancer | pIC50 (Y79 retinoblastoma cells [3]; 72 h, Y79, Exp 1, 72 hours, read-out: IC50): 4.44 | pIC50 (Y79 retinoblastoma cells [3]; 72 h, Y79, Exp 2, 72 hours, read-out: IC50): 4.41 | death of cancer cells by MTT assay (Y79 retinoblastoma cells [3]; Y79, 1-7.5 μM, 48-72 hours): resulted in the death of the cancer cells | pIC50 (Y79 retinoblastoma cells [3]; Y79, mean of Exp 1 and Exp 2, read-out: Mean IC50): 4.43 | melanoma tumor growth (B16F10 melanoma): reduces tumor growth | MTD (in vivo): ≥ 20 mg/kg

O=C(Nc1ccc(F)cc1)C(Sc1ccc(Cl)cc1)c1ccccc1 (centres unmarked) [Compound M11]
toxicity (PI uptake) (H9c2 cardiomyocytes; 5 μM): No toxicity | toxicity (PI uptake) (H9c2 cardiomyocytes; 10 μM): slight toxicity

Cc1c(Cc2ccc(Cl)c(Cl)c2)c(=O)oc2cc(O)ccc12 [Compound M21]
effect on AMPA receptor currents (AMPA receptor): no effect | number of cells exhibiting DNA fragmentation (TUNEL) [4]: significantly reduced the number of cells exhibiting DNA fragmentation | infarct volume (TTC) ([4]; 24 h): significantly reduced infarct volume | effect on agonist-induced Ca2+ changes (TRPA1): no effect | formalin-induced phase 1 (0-8 min) flinches [5]: little effect | formalin-induced phase 2 pain (9-60 min) flinches [5]: significantly reduced
